This note sets out measurements from US12662479B2 (Foghorn Therapeutics Inc., priority 2020, dated 2026).

Structures can show the parent of a compound that is named as a salt.

In test [1] the target is T1, HiBit-BRG1 fusion protein (Homo sapiens, UniProt P51532).
T1 construct: expressed in transfected cells
Description: HiBiT-BRG1 cell-based degradation assay (Nano-Glo HiBiT Lytic Detection, 24 h). As to conditions: HeLa cells expressing HiBit-BRG1 and LgBit; for DC50: read-out: BRG1 HiBit Degradation IC50; for Dmax: HeLa, top dose 30 μM, read-out: BRG1 HiBit Degradation Maximum measured. The procedure, abridged: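 Degradation is scaled from DMSO-treated cells (0%) to cells given 2 μM of a known BRM/BRG1 degrader (100%). HeLa cells stably carrying HiBiT-BRG1 plus LgBiT (5000/well) were lysed with Nano-Glo HiBiT detection reagent, shaken 10 min at RT, and luminescence read.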

Test [2] addresses T2, HiBit-BRM fusion protein (Homo sapiens, UniProt P51531).
T2 construct: expressed in transfected cells
Description: HiBiT-BRM cell-based degradation assay (Nano-Glo HiBiT Lytic Detection, 24 h). The conditions noted are these: HeLa cells expressing HiBiT-BRM; for DC50: read-out: BRM HiBit Degradation IC50; for BRM HiBit Degradation Maximum measured: top dose 30 μM. The procedure, abridged: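 Residual HiBiT-BRM in a stable HeLa line was measured by Nano-Glo lytic luminescence after 24 h compound exposure (top final dose 30 μM, 3-fold, 10 points, duplicate). Values are % degradation, scaled between DMSO-treated cells and cells given 2 μM of a known BRM/BRG1 degrader.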

T1 sequence (P51532 whole entry, the tested form may be a part): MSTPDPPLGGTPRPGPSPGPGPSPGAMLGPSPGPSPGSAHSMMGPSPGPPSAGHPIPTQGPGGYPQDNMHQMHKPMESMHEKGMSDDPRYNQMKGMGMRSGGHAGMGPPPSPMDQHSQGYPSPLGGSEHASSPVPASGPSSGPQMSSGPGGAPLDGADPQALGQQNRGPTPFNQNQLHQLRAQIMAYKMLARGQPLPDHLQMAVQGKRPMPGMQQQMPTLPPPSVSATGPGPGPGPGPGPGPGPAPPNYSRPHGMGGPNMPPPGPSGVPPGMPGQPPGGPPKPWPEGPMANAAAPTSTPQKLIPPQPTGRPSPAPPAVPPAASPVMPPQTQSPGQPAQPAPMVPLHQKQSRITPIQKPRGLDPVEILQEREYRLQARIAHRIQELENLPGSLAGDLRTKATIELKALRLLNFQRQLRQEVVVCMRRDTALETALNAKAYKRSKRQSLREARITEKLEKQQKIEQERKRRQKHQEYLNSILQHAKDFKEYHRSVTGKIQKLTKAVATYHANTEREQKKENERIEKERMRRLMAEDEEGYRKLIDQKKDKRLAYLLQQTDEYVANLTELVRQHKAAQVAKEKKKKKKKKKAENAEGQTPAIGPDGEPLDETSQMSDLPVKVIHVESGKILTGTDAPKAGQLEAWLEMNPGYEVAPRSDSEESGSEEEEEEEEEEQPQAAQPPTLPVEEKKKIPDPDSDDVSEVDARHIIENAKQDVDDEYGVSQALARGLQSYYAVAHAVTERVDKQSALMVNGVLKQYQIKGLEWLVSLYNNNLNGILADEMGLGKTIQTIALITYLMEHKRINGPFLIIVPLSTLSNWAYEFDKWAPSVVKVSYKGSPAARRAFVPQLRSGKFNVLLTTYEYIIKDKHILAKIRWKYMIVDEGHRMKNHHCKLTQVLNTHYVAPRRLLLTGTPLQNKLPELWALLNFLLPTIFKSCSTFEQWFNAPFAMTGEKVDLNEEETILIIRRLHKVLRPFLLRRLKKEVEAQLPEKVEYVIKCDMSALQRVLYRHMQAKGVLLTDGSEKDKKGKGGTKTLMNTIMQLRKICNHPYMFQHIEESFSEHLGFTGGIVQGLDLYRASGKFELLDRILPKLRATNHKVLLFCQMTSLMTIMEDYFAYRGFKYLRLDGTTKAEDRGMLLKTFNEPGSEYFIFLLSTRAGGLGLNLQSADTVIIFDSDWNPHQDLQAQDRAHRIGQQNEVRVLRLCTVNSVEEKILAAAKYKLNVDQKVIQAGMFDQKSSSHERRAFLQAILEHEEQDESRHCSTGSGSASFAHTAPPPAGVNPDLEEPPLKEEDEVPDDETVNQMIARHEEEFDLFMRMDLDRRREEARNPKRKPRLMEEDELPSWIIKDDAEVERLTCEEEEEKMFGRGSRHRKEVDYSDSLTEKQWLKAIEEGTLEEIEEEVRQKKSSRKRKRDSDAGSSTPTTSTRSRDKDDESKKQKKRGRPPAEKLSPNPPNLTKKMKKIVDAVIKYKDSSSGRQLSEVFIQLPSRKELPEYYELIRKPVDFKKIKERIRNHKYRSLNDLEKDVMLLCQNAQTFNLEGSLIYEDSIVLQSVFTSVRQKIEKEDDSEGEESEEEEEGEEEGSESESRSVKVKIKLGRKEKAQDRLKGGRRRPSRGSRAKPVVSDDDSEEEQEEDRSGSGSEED
T2 sequence (P51531 whole entry, the tested form may be a part): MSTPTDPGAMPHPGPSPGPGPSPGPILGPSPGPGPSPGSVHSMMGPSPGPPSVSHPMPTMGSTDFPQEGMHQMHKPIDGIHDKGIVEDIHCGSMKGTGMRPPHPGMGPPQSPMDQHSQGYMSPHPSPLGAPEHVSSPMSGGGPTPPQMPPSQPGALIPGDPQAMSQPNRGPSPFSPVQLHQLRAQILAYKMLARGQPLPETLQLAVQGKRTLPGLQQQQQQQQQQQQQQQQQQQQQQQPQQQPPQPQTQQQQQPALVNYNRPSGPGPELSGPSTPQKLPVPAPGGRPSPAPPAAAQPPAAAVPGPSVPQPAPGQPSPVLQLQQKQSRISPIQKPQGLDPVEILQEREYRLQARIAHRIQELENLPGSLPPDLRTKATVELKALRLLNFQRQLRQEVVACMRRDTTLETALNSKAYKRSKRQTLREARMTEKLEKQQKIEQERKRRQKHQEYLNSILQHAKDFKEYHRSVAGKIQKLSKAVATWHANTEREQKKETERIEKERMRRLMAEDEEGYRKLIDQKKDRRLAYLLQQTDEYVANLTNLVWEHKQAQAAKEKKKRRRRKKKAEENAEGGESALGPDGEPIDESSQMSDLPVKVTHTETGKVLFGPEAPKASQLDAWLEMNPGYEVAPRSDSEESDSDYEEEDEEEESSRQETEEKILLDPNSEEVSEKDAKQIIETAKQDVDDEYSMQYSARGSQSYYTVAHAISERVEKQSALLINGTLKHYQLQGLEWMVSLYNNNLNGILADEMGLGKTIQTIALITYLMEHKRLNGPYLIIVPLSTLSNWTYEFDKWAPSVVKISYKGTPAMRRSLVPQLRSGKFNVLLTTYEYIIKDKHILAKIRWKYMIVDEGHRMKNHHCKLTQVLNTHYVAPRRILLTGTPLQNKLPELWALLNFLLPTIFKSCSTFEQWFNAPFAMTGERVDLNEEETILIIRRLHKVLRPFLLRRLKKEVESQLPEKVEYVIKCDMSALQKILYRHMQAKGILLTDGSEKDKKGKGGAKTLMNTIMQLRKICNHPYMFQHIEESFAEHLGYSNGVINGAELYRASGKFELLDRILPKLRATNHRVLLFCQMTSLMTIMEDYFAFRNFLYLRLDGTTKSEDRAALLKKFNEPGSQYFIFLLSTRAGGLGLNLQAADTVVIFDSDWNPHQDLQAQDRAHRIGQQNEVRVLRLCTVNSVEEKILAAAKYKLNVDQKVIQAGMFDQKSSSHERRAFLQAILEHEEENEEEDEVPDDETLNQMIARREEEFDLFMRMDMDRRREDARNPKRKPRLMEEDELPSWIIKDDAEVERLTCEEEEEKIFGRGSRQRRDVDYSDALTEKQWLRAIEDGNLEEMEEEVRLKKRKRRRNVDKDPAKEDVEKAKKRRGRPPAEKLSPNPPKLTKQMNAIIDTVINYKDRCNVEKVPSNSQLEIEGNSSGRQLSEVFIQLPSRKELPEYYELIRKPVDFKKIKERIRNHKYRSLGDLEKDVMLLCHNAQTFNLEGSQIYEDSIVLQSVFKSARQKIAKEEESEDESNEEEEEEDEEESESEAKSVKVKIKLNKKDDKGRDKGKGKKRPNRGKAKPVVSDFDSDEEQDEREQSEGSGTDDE

In the case of `CS(=O)(=O)n1ccc(C(=O)NCC(=O)Nc2nc(C3CCCN(C(=O)CCN4CCN(c5ccc6c(c5)C(=O)N(C5CCC(=O)NC5=O)C6=O)CC4)C3)cs2)c1` (centres unmarked) [Compound 146, N-{4-[1-(3-{4-[2-(2,6-dioxopiperidin-3-yl)-1,3-dioxo-2,3-dihydro-1H-isoindol-5-yl]piperazin-1-yl}propanoyl)piperidin-3-yl]-1,3-thiazol-2-yl}-2-[(1-methanesulfonyl-1H-pyrrol-3-yl)formamido]acetamide formate], in test [1], the DC50 is over 10 µM and the Dmax was under 50%. In test [2], the DC50 was over 10 µM and the “BRM HiBit Degradation Maximum measured” value is listed as “C (‘C’ = Maximum degradation <50%)”.
With `CS(=O)(=O)n1ccc(C(=O)NCC(=O)Nc2nc(C3CCCN(C(=O)CCCCOc4cccc5c4C(=O)N(C4CCC(=O)NC4=O)C5=O)C3)cs2)c1` (centres unmarked) [Compound 147, N-{4-[1-(5-{[2-(2,6-dioxopiperidin-3-yl)-1,3-dioxo-2,3-dihydro-1H-isoindol-4-yl]oxy}pentanoyl)piperidin-3-yl]-1,3-thiazol-2-yl}-2-[(1-methanesulfonyl-1H-pyrrol-3-yl)formamido]acetamide], in test [1], the DC50 is over 10 µM and the Dmax was under 50%. Further, in test [2], the DC50 was over 10 µM and the “BRM HiBit Degradation Maximum measured” value is “C (‘C’ = Maximum degradation <50%)”.
Consider `CS(=O)(=O)n1ccc(C(=O)NCC(=O)Nc2nc(C3CCCN(C(=O)CCCCCCCOc4cccc5c4C(=O)N(C4CCC(=O)NC4=O)C5=O)C3)cs2)c1` (centres unmarked) [Compound 148, N-{4-[1-(8-{[2-(2,6-dioxopiperidin-3-yl)-1,3-dioxo-2,3-dihydro-1H-isoindol-4-yl]oxy}octanoyl)piperidin-3-yl]-1,3-thiazol-2-yl}-2-[(1-methanesulfonyl-1H-pyrrol-3-yl)formamido]acetamide], for which, in test [1], the DC50 is over 10 µM and the Dmax was under 50%. Besides, in test [2], the DC50 is over 10 µM and the “BRM HiBit Degradation Maximum measured” value is listed as “C (‘C’ = Maximum degradation <50%)”.
As for `CS(=O)(=O)n1ccc(C(=O)NCC(=O)Nc2nc(-c3cccc(-c4ccnc(C5(C(=O)NCC6CCN(CCOc7ccc8c(c7)C(=O)N(C7CCC(=O)NC7=O)C8=O)CC6)CC5)c4)c3)cs2)c1` (centres unmarked) [Compound 149, N-[[1-(2-[[2-(2,6-dioxopiperidin-3-yl)-1,3-dioxoisoindol-5-yl]oxy]ethyl)piperidin-4-yl]methyl]-1-[4-[3-(2-[2-[(1-methanesulfonylpyrrol-3-yl)formamido]acetamido]-1,3-thiazol-4-yl)phenyl]pyridin-2-yl]cyclopropane-1-carboxamide], in test [1], the DC50 fell in the range of 0.1 to 1 µM and the Dmax is over 75%. Besides, in test [2], the DC50 fell in the range of 0.1 to 1 µM and the “BRM HiBit Degradation Maximum measured” value is on record as “A (‘A’ = Maximum degradation >75%)”.
Take `CS(=O)(=O)n1ccc(C(=O)NCC(=O)Nc2nc(-c3cccc(-c4ccnc(C5(C(=O)N6CCN(CCOc7ccc8c(c7)C(=O)N(C7CCC(=O)NC7=O)C8=O)CC6)CC5)c4)c3)cs2)c1` (centres unmarked) [Compound 150, N-(2-((4-(3-(2-(1-(4-(2-((2-(2,6-dioxopiperidin-3-yl)-1,3-dioxoisoindolin-5-yl)oxy)ethyl)piperazine-1-carbonyl)cyclopropyl)pyridin-4-yl)phenyl)thiazol-2-yl)amino)-2-oxoethyl)-1-(methylsulfonyl)-1H-pyrrole-3-carboxamide]: in test [1], the DC50 was 0.1 to 1 µM and the Dmax was over 75%. In test [2], the DC50 was in the range of 0.1 to 1 µM; the “BRM HiBit Degradation Maximum measured” value is “B (‘B’ = Maximum degradation ≥50% and ≤75%)”.
`CS(=O)(=O)n1ccc(C(=O)NCC(=O)Nc2nc(-c3cccc(-c4ccnc(C5(C(=O)N6CCC7(CC6)CC(Oc6ccc8c(c6)C(=O)N(C6CCC(=O)NC6=O)C8=O)C7)CC5)c4)c3)cs2)c1` (centres unmarked) [Compound 151, N-[4-(3-[2-[1-(2-[[2-(2,6-dioxopiperidin-3-yl)-1,3-dioxoisoindol-5-yl]oxy]-7-azaspiro[3.5]nonane-7-carbonyl)cyclopropyl]pyridin-4-yl]phenyl)-1,3-thiazol-2-yl]-2-[(1-methanesulfonylpyrrol-3-yl)formamido]acetamide]: in test [1], the DC50 is under 0.1 µM and the Dmax was 50 to 75%. For the same compound, in test [2], the DC50 was over 10 µM and the “BRM HiBit Degradation Maximum measured” value is given as “C (‘C’ = Maximum degradation <50%)”.
On the same counts, the results for `CS(=O)(=O)n1ccc(C(=O)NCC(=O)Nc2nc(-c3cccc(-c4ccnc(C5(C(=O)NCCCC#Cc6cccc7c6C(=O)N(C6CCC(=O)NC6=O)C7=O)CC5)c4)c3)cs2)c1` (centres unmarked) [Compound 152, N-[5-[2-(2,6-dioxopiperidin-3-yl)-1,3-dioxoisoindol-4-yl]pent-4-yn-1-yl]-1-[4-[3-(2-[2-[(1-methanesulfonylpyrrol-3-yl)formamido]acetamido]-1,3-thiazol-4-yl)phenyl]pyridin-2-yl]cyclopropane-1-carboxamide] are over 10 µM, under 50%, over 10 µM and “C (‘C’ = Maximum degradation <50%)”.
As to `Cc1ncsc1-c1ccc(CNC(=O)[C@@H]2C[C@@H](O)CN2C(=O)[C@@H](NC(=O)CCCCCCC(=O)N(C)Cc2cc(-c3cccc(-c4csc(NC(=O)CNC(=O)c5ccn(S(C)(=O)=O)c5)n4)c3)ccn2)C(C)(C)C)cc1` [Compound 153, N-[(2S)-1-[(2S,4R)-4-hydroxy-2-([[4-(4-methyl-1,3-thiazol-5-yl)phenyl]methyl]carbamoyl)pyrrolidin-1-yl]-3,3-dimethyl-1-oxobutan-2-yl]-N′-([4-[3-(2-[2-[(1-methanesulfonylpyrrol-3-yl)formamido]acetamido]-1,3-thiazol-4-yl)phenyl]pyridin-2-yl]methyl)-N′-methyloctanediamide], in test [1], the DC50 is 0.1 to 1 µM and the Dmax was over 75%. For the same compound, in test [2], the DC50 was in the range of 0.1 to 1 µM; the “BRM HiBit Degradation Maximum measured” value is “B (‘B’ = Maximum degradation ≥50% and ≤75%)”.
Take `Cc1ncsc1-c1ccc(CNC(=O)[C@@H]2C[C@@H](O)CN2C(=O)[C@@H](NC(=O)CCN2CC(C(=O)NCc3cccc(-c4cccc(-c5csc(NC(=O)CNC(=O)c6ccn(S(C)(=O)=O)c6)n5)c4)c3)C2)C(C)(C)C)cc1` [Compound 154, (2S,4R)-4-hydroxy-1-[(2S)-2-[3-[3-([[3-(2-[2-[(1-methanesulfonylpyrrol-3-yl)formamido]acetamido]-1,3-thiazol-4-yl)-[1,1-biphenyl]-3-yl]methyl]carbamoyl)azetidin-1-yl]propanamido]-3,3-dimethylbutanoyl]-N-[[4-(4-methyl-1,3-thiazol-5-yl)phenyl]methyl]pyrrolidine-2-carboxamide formate]: the DC50 in test [1] was over 10 µM. In test [2], the DC50 was over 10 µM and the “BRM HiBit Degradation Maximum measured” value is “C (‘C’ = Maximum degradation <50%)”.
